Measurements: patent US3974140A, “Ureidoacetamido-penicillins” (Bayer Aktiengesellschaft, priority 1970, dated 1976)

Experiments:
Experiment in all cases: MIC, liquid medium test tube series dilution test
[1] = system: Psdm. aerug. Walter; type: cell-based, Pseudomonas aerug.; conditions: 24 hours, 37°C
In short: (§1)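 Tube dilution, liquid complete medium, 37°C/24 h; MIC = non-turbid tube; units/ml.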

[2] = system: Psdm. aerug. Bonn; type: cell-based, Pseudomonas aerug.; conditions: 24 hours, 37°C
In short: as §1

[3] = system: E. coli C 165; type: cell-based; conditions: E. coli C 165, 24 hours, 37°C
In short: as §1

[4] = system: Streptoc. faec. ATCC 9790; type: cell-based; conditions: Strep. faec. (Enterococcus) ATCC 9790, 24 hours, 37°C
In short: as §1

[5] = system: Klebsiella K 10; type: cell-based; conditions: Klebsiella K 10, 24 hours, 37°C
In short: as §1

[6] = system: Klebsiella 63; type: cell-based; conditions: Klebsiella 63, 24 hours, 37°C
In short: as §1

[7] = system: E. coli 183/58; type: cell-based; conditions: E. coli 183/58, 24 hours, 37°C
In short: as §1

[8] = system: E. coli 14; type: cell-based; conditions: E. coli 14, 24 hours, 37°C
In short: as §1

[9] = system: E. coli A 261; type: cell-based; conditions: E. coli A 261, 24 hours, 37°C
In short: as §1

[10] = system: Proteus vulg. 1017; type: cell-based, Proteus vulgaris; conditions: Proteus vulg. 1017, 24 hours, 37°C
In short: as §1

[11] = system: Proteus vulg. 3400; type: cell-based, Proteus vulgaris; conditions: Proteus vulg. 3400, 24 hours, 37°C
In short: as §1

[12] = system: Staph. aureus 133; type: cell-based, Staphylococcus aureus; conditions: Staph. aureus 133, 24 hours, 37°C
In short: as §1

[13] = system: Staph. aureus 1777 E; type: cell-based, Staphylococcus aureus; conditions: 24 hours, 37°C
In short: as §1

Compound | MIC [1] | MIC [2] | MIC [3] | MIC [4] | MIC [5] | MIC [6] | MIC [7] | MIC [8] | MIC [9] | MIC [10] | MIC [11] | MIC [12] | MIC [13]
COC(=O)N(C)C(=O)N[C@@H](C(=O)N[C@@H]1C(=O)N2[C@@H]1SC(C)(C)[C@@H]2C(=O)O)c1c(Cl)cccc1Cl [Example 7, Sodium D(-)-α-(3-methoxycarbonyl-3-methyl-ureido)-2,6-dichlorobenzylpenicillin] | > 500 units/ml | 100-500 units/ml | 100-500 units/ml | 100-500 units/ml | > 500 units/ml | > 500 units/ml | 100-500 units/ml | 100-500 units/ml | > 500 units/ml | ~ 500 units/ml | 100-500 units/ml | 0.8-4 units/ml | 100-500 units/ml
COC(=O)N(C)C(=O)N[C@H](C(=O)N[C@@H]1C(=O)N2[C@@H]1SC(C)(C)[C@@H]2C(=O)O)c1c(Cl)cccc1Cl [Example 8, Sodium L(+)-α-(3-methoxycarbonyl-3-methyl-ureido)-2,6-dichlorobenzylpenicillin] | > 500 units/ml | > 500 units/ml | > 500 units/ml | > 500 units/ml | > 500 units/ml | > 500 units/ml | > 500 units/ml | > 500 units/ml | > 500 units/ml | > 500 units/ml | > 500 units/ml | 4-20 units/ml | 100-500 units/ml
CC1(C)S[C@@H]2[C@H](NC(=O)[C@H](NC(=O)N3CCNC3=O)c3ccccc3)C(=O)N2[C@H]1C(=O)O [Example 52, D(-)-α-[(Imidazolidin-2-on-1-yl)-carbonylamino]-benzylpenicillin] | 12,5 units/ml | 12,5 units/ml | 12,5 units/ml | – | 100 units/ml | – | 6,25 units/ml | 3,12 units/ml | > 400 units/ml | – | – | < 0,78 units/ml | 200 units/ml
CN(C(=O)CCCCl)C(=O)N[C@@H](C(=O)N[C@@H]1C(=O)N2[C@@H]1SC(C)(C)[C@@H]2C(=O)O)c1ccccc1 [Example 88, Sodium D(-)-α-(3-γ-chlorobutyryl-3-methyl-ureido)-benzylpenicillin] | 50 units/ml | 25 units/ml | 6.25 units/ml | 50 units/ml | 50 units/ml | 25 units/ml | 3.12 units/ml | 1.56 units/ml | 400 units/ml | 12.5 units/ml | 6.25 units/ml | < 0.78 units/ml | –
CN(C(=O)CCC(Cl)(Cl)Cl)C(=O)N[C@@H](C(=O)N[C@@H]1C(=O)N2[C@@H]1SC(C)(C)[C@@H]2C(=O)O)c1ccccc1 [Example 89, Sodium (-)-α-(3-γ-trichlorobutyryl-3-methyl-ureido)-benzylpenicillin] | 50 units/ml | 25 units/ml | 6.25 units/ml | 100 units/ml | 25 units/ml | 12.5 units/ml | 1.56 units/ml | 1.56 units/ml | 400 units/ml | 3.12 units/ml | 12.5 units/ml | < 0.78 units/ml | –
C=CCN(C(=O)N[C@@H](C(=O)N[C@@H]1C(=O)N2[C@@H]1SC(C)(C)[C@@H]2C(=O)O)c1ccccc1)C(=O)c1ccccc1 [Example 90, Sodium D(-)-α-(3-benzoyl-3-allyl-ureido)-benzylpenicillin] | 50 units/ml | 25 units/ml | 12.5 units/ml | 100 units/ml | 50 units/ml | 25 units/ml | 12.5 units/ml | 6.25 units/ml | 400 units/ml | 12.5 units/ml | 25 units/ml | – | 50 units/ml
CCC(=O)N(C)C(=O)N[C@@H](C(=O)N[C@@H]1C(=O)N2[C@@H]1SC(C)(C)[C@@H]2C(=O)O)c1ccccc1 [Example 113, Sodium D(-)-α-(3-propionyl-3-methyl-ureido)-benzylpenicillin] | 4-20 units/ml | – | 0.8-4 units/ml | – | – | 100-500 units/ml | – | – | – | 4-20 units/ml | – | 0.8 units/ml | 100-500 units/ml
CCN(C(C)=O)C(=O)N[C@@H](C(=O)N[C@@H]1C(=O)N2[C@@H]1SC(C)(C)[C@@H]2C(=O)O)c1ccccc1 [Example 114, Sodium D(-)-α-(3-acetyl-3-ethyl-ureido)-benzylpenicillin] | 4-20 units/ml | – | 4-20 units/ml | – | – | 100-500 units/ml | – | – | – | 20-100 units/ml | – | 0.8 units/ml | 100-500 units/ml
CCCN(C(C)=O)C(=O)N[C@@H](C(=O)N[C@@H]1C(=O)N2[C@@H]1SC(C)(C)[C@@H]2C(=O)O)c1ccccc1 [Example 115, Sodium D(-)-α-(3-acetyl-3-n-propyl-ureido)-benzylpenicillin] | 20-100 units/ml | – | 20-100 units/ml | – | – | 100-500 units/ml | – | – | – | 20-100 units/ml | – | 0.8 units/ml | 100-500 units/ml
CC(C)C(=O)N(C)C(=O)N[C@@H](C(=O)N[C@@H]1C(=O)N2[C@@H]1SC(C)(C)[C@@H]2C(=O)O)c1ccccc1 [Example 116, Sodium D(-)-α-(3-i-butyryl-3-methyl-ureido)-benzylpenicillin] | ~20 units/ml | – | 4-20 units/ml | – | – | 20-100 units/ml | – | – | – | 4-20 units/ml | – | 0.8 units/ml | 100-500 units/ml
CC(=O)N(C(=O)N[C@@H](C(=O)N[C@@H]1C(=O)N2[C@@H]1SC(C)(C)[C@@H]2C(=O)O)c1ccccc1)c1ccccc1 [Example 130, Sodium D(-)-α-(3-acetyl-3-phenyl-ureido)-benzylpenicillin] | 200 units/ml | 200 units/ml | 100 units/ml | 50 units/ml | 25 units/ml | 50 units/ml | 100 units/ml | 12.5 units/ml | > 400 units/ml | 200 units/ml | 400 units/ml | < 0.8 units/ml | –
CN(C(=O)N[C@@H](C(=O)N[C@@H]1C(=O)N2[C@@H]1SC(C)(C)[C@@H]2C(=O)O)c1ccccc1)C(=O)c1ccccc1[N+](=O)[O-] [Example 140, Sodium D(-)-α-(3-o-nitrobenzoyl-3-methyl-ureido)-benzylpenicillin] | 12.5 units/ml | 12.5 units/ml | 3.1 units/ml | 12.5 units/ml | 12.5 units/ml | 25 units/ml | 1.6 units/ml | 0.8 units/ml | 50 units/ml | 3.1 units/ml | 6.25 units/ml | < 0.8 units/ml | –
CN(C(=O)N[C@@H](C(=O)N[C@@H]1C(=O)N2[C@@H]1SC(C)(C)[C@@H]2C(=O)O)c1ccccc1)C(=O)c1ccc(Cl)cc1Cl [Example 142, Sodium D(-)-α-(3-[2,4-dichlorobenzoyl]-3-methyl-ureido)-benzylpenicillin] | 12.5 units/ml | 25 units/ml | 3.1 units/ml | 25 units/ml | 12.5 units/ml | 25 units/ml | 1.6 units/ml | 0.8 units/ml | 50 units/ml | 3.1 units/ml | 12.5 units/ml | < 0.8 units/ml | –
CCC(=O)N(C(=O)N[C@@H](C(=O)N[C@@H]1C(=O)N2[C@@H]1SC(C)(C)[C@@H]2C(=O)O)c1ccccc1)c1ccccc1 [Example 143, Sodium D(-)-α-(3-propionyl-3-phenyl-ureido)-benzylpenicillin] | 200 units/ml | 200 units/ml | 50 units/ml | 100 units/ml | 50 units/ml | 100 units/ml | 50 units/ml | 12.5 units/ml | > 400 units/ml | 200 units/ml | 400 units/ml | < 0.8 units/ml | –
